Measurements: paper PMC11510563 (Pharmaceutics, 2024)

What follows are compounds tested against T1, oxytocin receptors (Homo sapiens, UniProt P30559) (assay: calcium fluorimetry reporter assay in Hs 578T cells). Conditions: Fluo-4, L-368,899 0.1-10 μM, SR 49059 0.1 μM, tolvaptan 1 nM.
T1 construct: endogenous in cells; host or cells: Hs 578T breast cancer cells
T1 sequence (P30559 1-389): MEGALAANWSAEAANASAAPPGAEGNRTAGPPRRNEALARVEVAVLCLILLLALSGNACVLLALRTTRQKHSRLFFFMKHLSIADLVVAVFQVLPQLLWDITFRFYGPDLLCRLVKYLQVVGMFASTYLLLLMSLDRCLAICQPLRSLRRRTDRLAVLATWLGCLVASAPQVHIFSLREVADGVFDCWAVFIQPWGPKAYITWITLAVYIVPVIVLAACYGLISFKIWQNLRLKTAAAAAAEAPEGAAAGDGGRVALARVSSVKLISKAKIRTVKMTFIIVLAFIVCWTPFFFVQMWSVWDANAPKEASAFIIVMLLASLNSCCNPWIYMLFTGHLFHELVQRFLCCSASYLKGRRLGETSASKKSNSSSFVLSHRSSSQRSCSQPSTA
Assay type: cell-based
Experimental: Twenty-four hours prior to use, Hs 578T cells were seeded in black 96-well plates (80,000 cells in 100 μL of supplemented DMEM per well). On the test day, changes in intracellular calcium ([Ca^2+]i) were measured using a Fluo-4 no wash calcium assay kit (F36206; Thermo Fisher Scientific). Briefly, medium was aspirated and replaced with 100 μL of 1× dye loading solution (Fluo-4 NW mix in 1× HBSS) containing 20 mM 4-(2-hydroxyethyl)-1piperazineethanesulfonic acid (HEPES, Sigma-Aldrich) and 2.5 mM probenecid, which prevents the active transport of Fluo-4 out of the cells. Cells were incubated for 40 min, and then mean fluorescence across each well was measured every 1.6 s for 90 s using a Flexstation 3 (Molecular Devices, Wokingham, UK) with excitation at 485 nm and emission at 525 nm.
`Cc1ccccc1N1CCN(S(=O)(=O)C[C@]23CC[C@H](C[C@@H]2NC(=O)[C@@H](N)CCS(C)(=O)=O)C3(C)C)CC1` [L-368,899] was tested, and the “sensitivity of oxytocin-induced [Ca^2+]i increases to the antagonist” value was “sensitive to blockade”. In the case of `COc1ccc(S(=O)(=O)N2c3ccc(Cl)cc3[C@](O)(c3ccccc3Cl)[C@@H]2C(=O)N2CCC[C@H]2C(N)=O)cc1OC` [SR 49059], the “sensitivity of oxytocin-induced [Ca^2+]i increases to the antagonist” value is reported as “not sensitive”. In the case of `Cc1ccccc1C(=O)Nc1ccc(C(=O)N2CCCC(O)c3cc(Cl)ccc32)c(C)c1` (stereo not drawn) [tolvaptan], the “sensitivity of oxytocin-induced [Ca^2+]i increases to the antagonist” value is reported as “not sensitive”.
